Literature values as cited in patent US20210145763A1, “LOW THC HEMP EXTRACT AND METHOD OF TREATMENT OR PREVENTION OF AN EYE DISEASE” (EYE CO PTY LTD, priority 2018, published 2021).

Assays:
[1] = target: T1, mineralocorticoid receptor (Homo sapiens, UniProt P08235); conditions: relative potency, hydrocortisone = 1
T1 sequence (P08235 1-984): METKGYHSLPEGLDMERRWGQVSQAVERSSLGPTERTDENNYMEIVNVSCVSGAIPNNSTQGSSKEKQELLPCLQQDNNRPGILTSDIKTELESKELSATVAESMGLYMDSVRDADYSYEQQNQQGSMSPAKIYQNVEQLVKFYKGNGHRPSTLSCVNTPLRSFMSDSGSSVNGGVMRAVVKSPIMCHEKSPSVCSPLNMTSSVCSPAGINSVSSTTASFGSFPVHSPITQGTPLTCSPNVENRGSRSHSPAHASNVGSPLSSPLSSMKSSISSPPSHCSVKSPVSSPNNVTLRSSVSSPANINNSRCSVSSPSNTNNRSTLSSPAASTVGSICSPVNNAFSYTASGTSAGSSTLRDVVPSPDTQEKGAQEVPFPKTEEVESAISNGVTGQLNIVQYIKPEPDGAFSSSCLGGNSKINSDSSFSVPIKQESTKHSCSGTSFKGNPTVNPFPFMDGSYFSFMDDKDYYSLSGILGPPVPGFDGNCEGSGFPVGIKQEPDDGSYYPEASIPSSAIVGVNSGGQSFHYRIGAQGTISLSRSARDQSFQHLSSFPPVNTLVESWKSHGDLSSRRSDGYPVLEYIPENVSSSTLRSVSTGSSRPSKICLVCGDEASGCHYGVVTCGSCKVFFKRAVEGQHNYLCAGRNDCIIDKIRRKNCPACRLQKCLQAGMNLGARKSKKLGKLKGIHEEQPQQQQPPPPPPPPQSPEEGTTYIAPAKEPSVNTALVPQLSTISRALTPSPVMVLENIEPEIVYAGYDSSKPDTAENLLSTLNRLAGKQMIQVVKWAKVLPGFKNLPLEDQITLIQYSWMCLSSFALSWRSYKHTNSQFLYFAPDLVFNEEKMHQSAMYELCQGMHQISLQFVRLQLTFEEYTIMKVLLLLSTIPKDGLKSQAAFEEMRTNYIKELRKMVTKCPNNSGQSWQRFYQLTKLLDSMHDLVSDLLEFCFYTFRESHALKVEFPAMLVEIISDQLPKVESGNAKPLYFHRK

glucocorticoid receptor = target: T2, glucocorticoid receptor (Homo sapiens, UniProt P04150); conditions: relative potency, hydrocortisone = 1
T2 sequence (P04150 1-777): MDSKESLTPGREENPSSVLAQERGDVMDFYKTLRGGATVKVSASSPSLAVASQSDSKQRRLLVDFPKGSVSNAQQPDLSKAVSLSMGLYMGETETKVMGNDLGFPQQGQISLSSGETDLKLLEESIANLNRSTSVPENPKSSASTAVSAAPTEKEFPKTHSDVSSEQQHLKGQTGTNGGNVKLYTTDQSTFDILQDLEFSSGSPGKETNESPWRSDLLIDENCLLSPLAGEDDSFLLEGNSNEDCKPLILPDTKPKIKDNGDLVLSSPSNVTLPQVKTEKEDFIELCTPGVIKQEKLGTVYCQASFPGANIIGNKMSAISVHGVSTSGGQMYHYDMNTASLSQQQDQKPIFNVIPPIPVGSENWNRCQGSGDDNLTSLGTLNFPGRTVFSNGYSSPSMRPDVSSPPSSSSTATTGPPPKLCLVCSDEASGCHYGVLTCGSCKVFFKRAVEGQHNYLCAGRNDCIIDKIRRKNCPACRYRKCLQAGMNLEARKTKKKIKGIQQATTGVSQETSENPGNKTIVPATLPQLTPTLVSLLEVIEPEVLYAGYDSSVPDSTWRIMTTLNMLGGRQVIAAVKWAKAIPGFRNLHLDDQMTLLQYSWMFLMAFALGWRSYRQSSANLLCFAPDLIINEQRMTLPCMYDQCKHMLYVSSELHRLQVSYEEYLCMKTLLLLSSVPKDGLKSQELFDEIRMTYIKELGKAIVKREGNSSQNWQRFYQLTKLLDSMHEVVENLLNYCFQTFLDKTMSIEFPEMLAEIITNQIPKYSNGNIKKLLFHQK

[2] = in vivo

Row | Structure (SMILES) | MR potency [1] | GR potency (glucocorticoid receptor) | Duration of action (t1/2 in hours) [2] [h]
1 | C[C@]12CCC(=O)C=C1CC[C@@H]1[C@@H]2[C@@H](O)C[C@]2(C=O)[C@@H](C(=O)CO)CC[C@@H]12 [Aldosterone] | 200-1000 | 0.3 | –
2 | C[C@]12CCC(=O)C=C1CC[C@@H]1[C@@H]2C(=O)C[C@@]2(C)[C@H]1CC[C@]2(O)C(=O)CO [Cortisone] | 0.8 | 0.8 | –
3 | C[C@]12CCC(=O)C=C1CC[C@@H]1[C@@H]2[C@@H](O)C[C@@]2(C)[C@H]1CC[C@]2(O)C(=O)CO [Hydrocortisone (cortisol), Hydrocortisone] | 1 | 1 | –
4 | C[C@]12C=CC(=O)C=C1CC[C@@H]1[C@@H]2C(=O)C[C@@]2(C)[C@H]1CC[C@]2(O)C(=O)CO [Prednisone] | 0.8 | – | 16 to 36

More lines, now with the values ahead:

Row | MR potency [1] | GR potency (glucocorticoid receptor) | Duration of action (t1/2 in hours) [2] [h] | Structure (SMILES)
5 | 20 | 0 | – | CC(=O)OCC(=O)[C@H]1CC[C@H]2[C@@H]3CCC4=CC(=O)CC[C@]4(C)[C@H]3CC[C@]12C [Deoxycorticosterone acetate (DOCA), Deoxycorticosterone acetate]
6 | 200 | – | – | CC(=O)OCC(=O)[C@@]1(O)CC[C@H]2[C@@H]3CCC4=CC(=O)CC[C@]4(C)[C@@]3(F)[C@@H](O)C[C@@]21C [Fludrocortisone acetate]
7 | – | – | 18 to 40 | C[C@H]1C[C@@H]2[C@H]([C@@H](O)C[C@@]3(C)[C@H]2CC[C@]3(O)C(=O)CO)[C@@]2(C)C=CC(=O)C=C12 [Methylprednisolone]
8 | 0.8 | 4 | 16 to 36 | C[C@]12C=CC(=O)C=C1CC[C@@H]1[C@@H]2[C@@H](O)C[C@@]2(C)[C@H]1CC[C@]2(O)C(=O)CO [Prednisolone]
9 | 0 | 5 | 12 to 36 | C[C@]12C=CC(=O)C=C1CC[C@H]1[C@@H]3C[C@@H](O)[C@](O)(C(=O)CO)[C@@]3(C)C[C@H](O)[C@@]12F [Triamcinolone]
